{
  "source": "patent US5691348A",
  "about": "“Pyridyl imidazole derivatives and processes for the preparation thereof” (Daewoo Electronics Co., Ltd., priority 1994, dated 1997)",
  "key": {"renal hypertensive rat": {"system": "renal hypertensive rat", "assay": "Blood pressure lowering effect in renal hypertension", "type": "in vivo, Sprague-Dawley rat", "settings": "Amount 3 mg; intravenous or oral (not specified)", "excerpt": "(§1) To induce renal hypertension, left renal artery of 4 week-old male Sprague-Dawley rat (from The Korea Research Institute of Chemical Technology) was ligated. The rat was anesthetized with ether and the surgical region on the left abdomen of the rat was shaved, disinfected, and then incised about 1 cm vertically. The renal artery near abdominal aorta was isolated carefully from surrounding tissues and veins, and then ligated completely with a suture (4/0 sterile surgical silk). The muscular strata and skin of the surgical area were sutured with a suture (4/0 sterile surgical silk). The surgical region was disinfected to prevent infection and thereafter, 200 to 250 mg/kg/day of cephazolin sodium was injected intramuscularly for 2 days. 6 to 8 days after the ligation, rats showing systolic pressure of more than 180 mmHg were selected for renal hypertension test. The blood pressure was determined by a tail-cuff method from the tail under unanesthetized condition (Gerold, M. et al., Arzneimittel-Forsch., 18, 1285(1968)).\n(§2) Each of the compounds to be tested was administered intravenously or orally into the renal hypertensive rat. The blood pressure of the rat was determined by direct method (Chiu, A. T. et al., J. Pharmacol. Exp. Ther., 250, 867(1989)) using a catheter. The rat was anesthetized with ketamine hydrochloride (125 mg/kg, i.p.) and a catheter was filled with saline and inserted into a carotid artery and […]. The surgical area was sutured with a metal clip. The rat was relaxed at least 3 hours and the catheter in the carotid artery was adapted to an isotec pressure transducer to determine the blood pressure and heart rate with a physiograph (Linearcorder WR3310). After the blood pressure was stabilized, the test compound was administered intravenously or orally. For intravenous administration, the administered volume and washing volume were 1.0 ml/kg and 0.2 ml, respectively. The blood pressure and heart rate were measured in regular intervals up to 24 hours after the administration of the test compound and compared with those measured after the administration of the control compound Losartan.\n(§3) The test compound was dissolved in 0.05N KOH for intravenous administration and suspended in Tween 80 for oral administration."}, "unanesthetized dogs [1]": {"system": "unanesthetized dogs", "assay": "Blood pressure variation with time in unanesthetized dogs", "type": "in vivo, dog", "settings": "1.0 mg, oral", "protocol": "(§4) A number of dog was fed freely in a feeding room and those weighing 7 to 12 kg in good health were selected regardless of their gender.\n(§5) The test dog was anesthetized with 30 mg/kg of pentobarbital sodium by intravenous injection and the left femoral artery and femoral vein were separated carefully. Silicone catheter, specially prepared and filled with saline treated with heparin (1,000 IU/ml), was cannulated into the blood vessels. After the surgery, the dog was constrained to measure the blood pressure continuously with Gould 2000 physiograph adapted to a Grass P23XL pressure transducer; and the heart rate was monitored with ECG/Biotacho amplifier. The dog was tested at least 2 days after the surgery.\n10 mg/kg of furosemide was injected intramuscularly 18 hours (in case of intravenous injection, 2 hours) before the beginning of the test (administration of the test compound) to improve the activity of renin in blood plasma. After the injection of furosemide, neither food nor water was provided. […] The blood pressure and heart rate were measured up to 8 hours after the administration of each test compound."}, "unanesthetized dogs [2]": {"system": "unanesthetized dogs", "assay": "Maximum blood pressure lowering effect in unanesthetized dogs at different amounts", "type": "in vivo, dog", "protocol": "as §4, §5\n10 mg/kg of furosemide was injected intramuscularly 18 hours (in case of intravenous injection, 2 hours) before the beginning of the test (administration of the test compound) to improve the activity of renin in blood plasma. After the injection of furosemide, neither food nor water was provided. The test compound was suspended in Tween 80 and administered in an amount of 20 mg/kg orally. The blood pressure and heart rate were measured up to 8 hours after the administration of each test compound.\nThe maximum blood pressure lowering effect of the present compounds and the control compounds were determined in different amounts of administration using the same method as (i) and the results are given in Table 4."}, "renal hypertensive rats": {"system": "renal hypertensive rats", "assay": "Duration of action in renal hypertensive rats", "type": "in vivo, Sprague-Dawley rat", "settings": "3 mg/kg oral", "excerpt": "as §1, §2, §3\nThe compound of Example 1 and the Merck compound were tested using the hypertensive rats of test 2(i). 3 mg/kg of each compound was administered orally and blood pressure lowering effect with time was determined to measure the duration of action of the compounds."}},
  "data": [
    {"smiles": "CCCCc1nc2cc(-c3cccc[n+]3[O-])c(CO)nc2n1Cc1ccc(-c2ccccc2-c2nn[nH]n2)cc1", "note": "[Example 1, 2-Butyl-5-hydroxymethyl-6-(1-oxy-pyridin-2-yl)-3-[2'-(1H-tetrazol-5-yl)-biphenyl-4-ylmethyl]-3H-imidazo[4,5-b]pyridine]", "values": [
      {"measurement": "Maximum Blood Pressure Lowering Effect", "setting": "renal hypertensive rat", "value": -60, "unit": "%"},
      {"measurement": "Maximum Blood Pressure Lowering Effect", "setting": "unanesthetized dogs [1]; 0.5 hr", "value": -17.5, "unit": "%"},
      {"measurement": "Maximum Blood Pressure Lowering Effect", "setting": "unanesthetized dogs [1]; 1 hr", "value": -21.4, "unit": "%"},
      {"measurement": "Maximum Blood Pressure Lowering Effect", "setting": "unanesthetized dogs [1]; 2 hr", "value": -23.6, "unit": "%"},
      {"measurement": "Maximum Blood Pressure Lowering Effect", "setting": "unanesthetized dogs [1]; 4 hr", "value": -24.8, "unit": "%"},
      {"measurement": "Maximum Blood Pressure Lowering Effect", "setting": "unanesthetized dogs [1]; 6 hr", "value": -21.7, "unit": "%"},
      {"measurement": "Maximum Blood Pressure Lowering Effect", "setting": "unanesthetized dogs [1]; 8 hr", "value": -13.2, "unit": "%"},
      {"measurement": "Maximum Blood Pressure Lowering Effect", "setting": "unanesthetized dogs [2]; 0.3 mg/kg", "value": -17, "unit": "%"},
      {"measurement": "Maximum Blood Pressure Lowering Effect", "setting": "unanesthetized dogs [2]; 1 mg/kg", "value": -25, "unit": "%"},
      {"measurement": "Maximum Blood Pressure Lowering Effect", "setting": "renal hypertensive rats; 0 min", "value": 0, "unit": "%"},
      {"measurement": "Maximum Blood Pressure Lowering Effect", "setting": "renal hypertensive rats; 10 min", "value": -11, "unit": "%"},
      {"measurement": "Maximum Blood Pressure Lowering Effect", "setting": "renal hypertensive rats; 20 min", "value": -19, "unit": "%"},
      {"measurement": "Maximum Blood Pressure Lowering Effect", "setting": "renal hypertensive rats; 30 min", "value": -32, "unit": "%"},
      {"measurement": "Maximum Blood Pressure Lowering Effect", "setting": "renal hypertensive rats; 60 min", "value": -48, "unit": "%"},
      {"measurement": "Maximum Blood Pressure Lowering Effect", "setting": "renal hypertensive rats; 90 min", "value": -42, "unit": "%"},
      {"measurement": "Maximum Blood Pressure Lowering Effect", "setting": "renal hypertensive rats; 120 min", "value": -44, "unit": "%"},
      {"measurement": "Maximum Blood Pressure Lowering Effect", "setting": "renal hypertensive rats; 240 min", "value": -58, "unit": "%"},
      {"measurement": "Maximum Blood Pressure Lowering Effect", "setting": "renal hypertensive rats; 360 min", "value": -60, "unit": "%"},
      {"measurement": "Maximum Blood Pressure Lowering Effect", "setting": "renal hypertensive rats; 1320 min", "value": -48, "unit": "%"},
      {"measurement": "Maximum Blood Pressure Lowering Effect", "setting": "renal hypertensive rats; 1440 min", "value": -49, "unit": "%"},
      {"measurement": "duration of action compared with the Merck compound", "setting": "renal hypertensive rats; renal hypertensive rats", "value": "far longer duration of action than the Merck compound"}
    ]}
  ]
}
